# Test results taken from article PMC5007552, “The hVps34‐SGK3 pathway alleviates sustained PI3K/Akt inhibition by stimulating mTORC1 and tumour growth” (The EMBO Journal, 2016).
# Several values for one entry are separate records, joined by “and”; a condition that tells them apart may be missing. Equal entries are not always repeated.
# System: ZR-75-1 cells
# Assay: NanoString human kinome mRNA quantification
# Assay type: cell-based
# Description: Human mRNAs were hybridised to NanoString human kinome and control code sets, then subjected to quantification using NanoString software. […] To permit data compaction, and simple kinome‐wide comparisons, the fold changes are log2 transformed. […] Cell pellets were resuspended at a concentration of ~6,500 cells/μl in RLT buffer (Qiagen). […] For total copy numbers, triplicate normalised count values were averaged, and to calculate fold induction, means were divided by triplicate mean values from matched DMSO controls. P‐values were calculated using unpaired t‐test (GraphPad Prism software) by employing treated and control count data for each kinase mRNA.
compound,measurement,setting,value
NC1(c2ccc(-c3nc4ccn5c(=O)[nH]nc5c4cc3-c3ccccc3)cc2)CCC1 [MK-2206],Normalised counts HIPK1,"HIPK1 mRNA, single replicates",558.67 and 555.89 and 631.82
same,Average normalised counts HIPK2,"HIPK2 mRNA, average of 3 replicates",697.1
same,Normalised counts HIPK2,"HIPK2 mRNA, single replicates",690.47 and 698.36 and 702.47
same,Average normalised counts HIPK3,"HIPK3 mRNA, average of 3 replicates",924.78
same,Normalised counts HIPK3,"HIPK3 mRNA, single replicates",914.99 and 915.54 and 943.81
same,Average normalised counts HIPK4,"HIPK4 mRNA, average of 3 replicates",8.793
same,Normalised counts HIPK4,"HIPK4 mRNA, single replicates",13.29 and 6.84 and 6.25
same,Average normalised counts HSPB8,"HSPB8 mRNA, average of 3 replicates",703.253
same,Normalised counts HSPB8,"HSPB8 mRNA, single replicates",670.48 and 739.19 and 700.09
same,Average normalised counts HUNK,"HUNK mRNA, average of 3 replicates",120.407
same,Normalised counts HUNK,"HUNK mRNA, single replicates",115.1 and 122.38 and 123.74
same,Average normalised counts HUS1,"HUS1 mRNA, average of 3 replicates",872.423
same,Normalised counts HUS1,"HUS1 mRNA, single replicates",841.36 and 886.88 and 889.03
same,Average normalised counts IGF1R,"IGF1R mRNA, average of 3 replicates",2361.57
same,Normalised counts IGF1R,"IGF1R mRNA, single replicates",2300.25 and 2376.77 and 2407.7
same,Average normalised counts IKBKB,"IKBKB mRNA, average of 3 replicates",768.703
same,Normalised counts IKBKB,"IKBKB mRNA, single replicates",749.55 and 764.38 and 792.18
same,Average normalised counts IKBKE,"IKBKE mRNA, average of 3 replicates",224.477
same,Normalised counts IKBKE,"IKBKE mRNA, single replicates",217.95 and 203.13
same,Average normalised counts ILK,"ILK mRNA, average of 3 replicates",435.073
same,Normalised counts ILK,"ILK mRNA, single replicates",419.6 and 422.1 and 463.52
same,Average normalised counts INSR,"INSR mRNA, average of 3 replicates",414.107
same,Normalised counts INSR,"INSR mRNA, single replicates",395.06 and 455.98 and 391.28
same,Average normalised counts INSRR,"INSRR mRNA, average of 3 replicates",3.12
same,Normalised counts INSRR,"INSRR mRNA, single replicates",2.39 and 5.97 and 1
same,Average normalised counts IRAK1,"IRAK1 mRNA, average of 3 replicates",1144.48
same,Normalised counts IRAK1,"IRAK1 mRNA, single replicates",1168.59 and 1134.47 and 1130.37
same,Average normalised counts IRAK2,"IRAK2 mRNA, average of 3 replicates",17.2833
same,Normalised counts IRAK2,"IRAK2 mRNA, single replicates",12.38 and 18.13 and 21.34
same,Average normalised counts IRAK3,"IRAK3 mRNA, average of 3 replicates",4.617
same,Normalised counts IRAK3,"IRAK3 mRNA, single replicates",3.29 and 5.1 and 5.46
same,Average normalised counts IRAK4,"IRAK4 mRNA, average of 3 replicates",506.37
same,Normalised counts IRAK4,"IRAK4 mRNA, single replicates",495.95 and 488.99 and 534.17
same,Average normalised counts ITK,"ITK mRNA, average of 3 replicates",1.763
same,Normalised counts ITK,"ITK mRNA, single replicates",3.29 and 1 (2×)
same,Average normalised counts JAK1,"JAK1 mRNA, average of 3 replicates",943.323
same,Normalised counts JAK1,"JAK1 mRNA, single replicates",967.71 and 921.63 and 940.63
same,Average normalised counts JAK2,"JAK2 mRNA, average of 3 replicates",378.063
same,Normalised counts JAK2,"JAK2 mRNA, single replicates",379.61 and 384.74 and 369.84
same,Average normalised counts JAK3,"JAK3 mRNA, average of 3 replicates",2.113
same,Normalised counts JAK3,"JAK3 mRNA, single replicates",1.48 and 3.37 and 1.49
same,Average normalised counts KALRN,"KALRN mRNA, average of 3 replicates",1
same,Normalised counts KALRN,"KALRN mRNA, single replicates",1
same,Average normalised counts KDR,"KDR mRNA, average of 3 replicates",1.163
same,Normalised counts KDR,"KDR mRNA, single replicates",1 (2×) and 1.49
same,Average normalised counts KIAA1804,"KIAA1804 mRNA, average of 3 replicates",209.647
same,Normalised counts KIAA1804,"KIAA1804 mRNA, single replicates",226.9 and 199.7 and 202.34
same,Average normalised counts KIT,"KIT mRNA, average of 3 replicates",1
same,Normalised counts KIT,"KIT mRNA, single replicates",1
same,Average normalised counts KSR1,"KSR1 mRNA, average of 3 replicates",15.5767
same,Normalised counts KSR1,"KSR1 mRNA, single replicates",14.2 and 11.19 and 21.34
same,Average normalised counts KSR2,"KSR2 mRNA, average of 3 replicates",58.27
same,Normalised counts KSR2,"KSR2 mRNA, single replicates",61.47 and 55.49 and 57.85
same,Average normalised counts LATS1,"LATS1 mRNA, average of 3 replicates",1079.17
same,Normalised counts LATS1,"LATS1 mRNA, single replicates",1068.6 and 1080.61 and 1088.29
same,Average normalised counts LATS2,"LATS2 mRNA, average of 3 replicates",223.537
same,Normalised counts LATS2,"LATS2 mRNA, single replicates",222.36 and 229.24 and 219.01
same,Average normalised counts LCK,"LCK mRNA, average of 3 replicates",1
same,Normalised counts LCK,"LCK mRNA, single replicates",1
same,Average normalised counts LIMK1,"LIMK1 mRNA, average of 3 replicates",487.24
same,Normalised counts LIMK1,"LIMK1 mRNA, single replicates",499.59 and 471.62 and 490.51
same,Average normalised counts LMTK2,"LMTK2 mRNA, average of 3 replicates",633.213
same,Normalised counts LMTK2,"LMTK2 mRNA, single replicates",615.03 and 621.04 and 663.57
same,Average normalised counts LMTK3,"LMTK3 mRNA, average of 3 replicates",14.4067
same,Normalised counts LMTK3,"LMTK3 mRNA, single replicates",19.66 and 8.58 and 14.98
same,Average normalised counts LRRK1,"LRRK1 mRNA, average of 3 replicates",204.153
same,Normalised counts LRRK1,"LRRK1 mRNA, single replicates",193.27 and 214.47 and 204.72
same,Average normalised counts LRRK2,"LRRK2 mRNA, average of 3 replicates",465.12
same,Normalised counts LRRK2,"LRRK2 mRNA, single replicates",461.41 and 439.47 and 494.48
same,Average normalised counts LTK,"LTK mRNA, average of 3 replicates",1
same,Normalised counts LTK,"LTK mRNA, single replicates",1
same,Average normalised counts LYN,"LYN mRNA, average of 3 replicates",10.41
same,Normalised counts LYN,"LYN mRNA, single replicates",11.48 and 10.32 and 9.43
same,MAK Normalised counts Average,"MAK mRNA, average of 3",7.77
same,MAK Normalised counts (single replicates),"MAK mRNA, replicates 1-3",7.84 and 6.84 and 8.63
same,MAP2K1 Normalised counts Average,"MAP2K1 mRNA, average of 3",1481.58
same,MAP2K1 Normalised counts (single replicates),"MAP2K1 mRNA, replicates 1-3",1469.45 and 1465.46 and 1509.84
same,MAP2K2 Normalised counts Average,"MAP2K2 mRNA, average of 3",2403.01
same,MAP2K2 Normalised counts (single replicates),"MAP2K2 mRNA, replicates 1-3",2394.14 and 2328.31
same,MAP2K3 Normalised counts Average,"MAP2K3 mRNA, average of 3",410.613
same,MAP2K3 Normalised counts (single replicates),"MAP2K3 mRNA, replicates 1-3",415.06 and 378.66 and 438.12
same,MAP2K4 Normalised counts Average,"MAP2K4 mRNA, average of 3",708.25
same,MAP2K4 Normalised counts (single replicates),"MAP2K4 mRNA, replicates 1-3",670.48 and 728.77 and 725.5
same,MAP2K5 Normalised counts Average,"MAP2K5 mRNA, average of 3",322.173
same,MAP2K5 Normalised counts (single replicates),"MAP2K5 mRNA, replicates 1-3",317.8 and 316.98 and 331.74
same,MAP2K6 Normalised counts Average,"MAP2K6 mRNA, average of 3",279.153
